# Measurements as given in patent US20090202439A1, “Methods for treatment of angiogenesis” (The Johns Hopkins University, priority 2004, published 2009).
# Read-outs that look alike come from different tables or passages of the source.
# How the values were obtained:
# PECAM-1 [1] = experiment: PECAM-1 protein expression by Western immunoblot in HUVECs; assay type: cell-based, human; conditions: for bypass of inhibitory effect of D-PDMP on VEGF induced PECAM-1 protein expression: HUVECs treated with D-PDMP, then lipid; for PECAM-1 expression induced by lipid: 2.5 μM for 4 hrs; for reversal of inhibitory effect of PPMP on VEGF induced PECAM-1 expression: PPMP 90 min, then lipid 2.5 μM 4 hrs, GlcCer to a lesser extent than LacCer; for VEGF/LacCer induced PECAM-1: HUVECs pre-treated with NAC, DPI or PDTC
# Procedure: Cell Culture—Human umbilical vein endothelial cells (HUVEC) and endothelial cells growth medium EGM™ were purchased from Cambrex, (Walkersville, Md.) and were cultured in EGM™ medium supplemented with 10% fetal bovine serum (FBS).
# Western Immunoblot Analysis—[…] of protein was resolved by 10% SDS-PAGE and then transferred to nitrocellulose membrane. The membrane-bound primary antibodies were visualized by horseradish peroxidase-conjugated secondary antibody using chemiluminescence kit. The films were then densitometrically scanned using Molecular Dynamics Image Scanner and analyzed using Image Quant software.
# HUVECs = experiment: In vitro angiogenesis/tube formation assay in HUVECs; assay type: cell-based, human; conditions: for reversal of inhibitory effect of PPMP on VEGF induced angiogenesis: then lipid 2.5 μM 4 hrs, GlcCer to a lesser extent than LacCer; for bypass of inhibitory effect of D-PDMP on VEGF induced angiogenesis: HUVECs treated with D-PDMP, then lipid
# Procedure: (§1) In vitro angiogenesis/tube formation assay—In vitro angiogenesis assay was performed using a commercially available kit from Chemicon Inc (Temecula, Calif.).
# REN (WT) cells = experiment: In vitro angiogenesis assay in REN (WT) cells lacking PECAM-1; assay type: cell-based, human; conditions: VEGF 25 ng/ml or LacCer 2.5 μM 4 hrs, compared with 2% FBS treated cells
# Procedure: (§2) REN (WT) [A] were either stimulated with VEGF (25 ng/ml) [B]; LacCer (2.5 μM) [C] or REN (rhPECAM-1) [D] with VEGF (25 ng/ml) (E) or LacCer [F] for 4 hrs and then in vitro angiogenesis assays were performed as described earlier. Results shown here are from set of experiments performed in triplicate yielding similar results.
# (§3) Cell Culture—Human umbilical vein endothelial cells (HUVEC) and endothelial cells growth medium EGM™ were purchased from Cambrex, (Walkersville, Md.) and were cultured in EGM™ medium supplemented with 10% fetal bovine serum (FBS). Human mesoendothelioma cell line [(REN— wild type (WT)] which lacks endogenous PECAM-1 expression and REN (mt-rhPECAM-1) expressing human PECAM-1 was kindly provided by Dr. Steven Albelda, University of Pennsylvania Medical Center, USA. REN-WT was grown in RPMI 1640 supplemented with 101/&FBS. REN (mtrhPECAM-1) was cultured in the same medium with G418 (0.5 g/L Gibco).
# as §1
# PECAM-1 [2] = experiment: PECAM-1 mRNA expression by real-time RT-PCR in HUVECs; assay type: cell-based, human
# REN (mt-rhPECAM-1) = experiment: In vitro angiogenesis assay in REN cells transfected with human PECAM-1 gene; assay type: cell-based; conditions: REN transfected with human PECAM-1 gene, VEGF 25 ng/ml or LacCer 4 hrs, compared with control
# Procedure: as §2, §3, §1
# NF-κB = experiment: Cytosolic NF-κB expression in HUVECs; assay type: cell-based, human; conditions: HUVECs pre-treated with NAC, DPI or PDTC
# GalT-V [3] = experiment: LacCer synthase (GalT-V) enzyme activity in siRNA transfected HUVECs; assay type: cell-based, human; conditions: siRNA 100 nM, compared with scrambled siRNA treated cells
# Procedure: (C) HUVECs were transfected with either scrambled GalT-V siRNA (100 nM) or GalT-V siRNA (100 nM). 48 hrs post transfection, cells were lysed and Cer synthase enzyme activity was performed as described in “Materials and Methods”. […] HUVECs were transfected with siRNA duplexes using Oligofectamine (Invitrogen), following protocol supplied by the manufacturer.
# GalT-V [4] = experiment: GalT-V protein expression by immunoblot in siRNA transfected HUVECs; assay type: cell-based, human; conditions: siRNA duplex 100 nM, 48 hrs after transfection
# Procedure: Next, 48 hrs after transfection cells were harvested lysed, and GalT-V protein levels were analyzed by immunoblot probed with GalT-V antibody or b-actin, as shown in the figure. GalT-V expression was expressed as % control, when normalized with b-actin expression and the relative quantification values are shown below the immunoblot. (C) HUVECs were transfected with either scrambled GalT-V siRNA (100 nM) or GalT-V siRNA (100 nM). […] The data shown is representative of two identical experiments yielding similar result. […] HUVECs were transfected with siRNA duplexes using Oligofectamine (Invitrogen), following protocol supplied by the manufacturer. Western Immunoblot Analysis-25 g of protein was resolved by 10% SDS-PAGE and then transferred to nitrocellulose membrane. The membrane-bound primary antibodies were visualized by horseradish peroxidase-conjugated secondary antibody using chemiluminescence kit. The films were then densitometrically scanned using Molecular Dynamics Image Scanner and analyzed using Image Quant software.
# GbOse3Cer = GbOse3Cer synthesis in HUVECs; assay type: cell-based, human; conditions: cells treated with VEGF, with and without D-PDMP (data not shown)
# LacCer synthase = conditions: previously shown; cited from earlier work
# HUVEC = experiment: Apoptosis in HUVEC; assay type: cell-based, human; conditions: D-PDMP 20 μM up to 4-6 hrs, HUVEC (data not shown)
# GlcCer = conditions: HUVECs
# [5] = CC 5.0 μM, GÖ 6850 and 6976 50 nM, BPB 10 μM, MAFP 3.0 μM, compared with vehicle (DMSO)
# [6] = VEGF 25 ng/ml 4 hrs, compared to scrambled siRNA transfected cells
# [7] = D-PDMP 20 μM for 90 min, then VEGF 25 ng/ml
# [8] = cells treated with increasing concentrations of L-PDMP
# [9] = HUVECs, VEGF 30 ng/ml for 4 hrs
# [10] = HUVECs pretreated with PPMP 20 μM
compound,measurement,setting,value
bromophenacyl bromide [BPB],VEGF/LacCer induced PECAM-1 expression,PECAM-1 [1],abrogated
same,VEGF/LacCer induced tube formation,HUVECs,abrogated
Lactosylceramide [LacCer],tube formation,REN (WT) cells,failed to form tube-like structures
same,bypass of D-PDMP inhibition of PECAM-1 mRNA expression,"PECAM-1 [2]; D-PDMP 20 μM 90 min, then VEGF 25 ng/ml and LacCer 2.5 μM 4 hrs",bypassed
same,bypass of inhibitory effect of D-PDMP on VEGF induced PECAM-1 protein expression,PECAM-1 [1],bypassed
same,PECAM-1 expression induced by lipid,PECAM-1 [1]; HUVECs,significantly induced
same,reversal of inhibitory effect of PPMP on VEGF induced PECAM-1 expression,PECAM-1 [1]; HUVECs,reversed
same,tube formation,REN (mt-rhPECAM-1),induced tube formation
same,reversal of inhibitory effect of PPMP on VEGF induced angiogenesis,HUVECs; HUVECs,reversed
same,induction of angiogenesis,"HUVECs; HUVECs, independent of presence/absence of D-PDMP and VEGF",significantly induced
CN(C)CCCn1cc(C2=C(c3c[nH]c4ccccc34)C(=O)NC2=O)c2ccccc21 [GÖ 6850],VEGF/LacCer induced PECAM-1 expression,PECAM-1 [1]; [5],abrogated
same,VEGF/LacCer induced tube formation,HUVECs; [5],abrogated
"c1ccc2c(c1)[I+]c1ccccc1-2 [DPI, diphenylene iodonium]",VEGF/LacCer induced PECAM-1,PECAM-1 [1],significantly blunted
same,VEGF/LacCer induced cytosolic NF-κB expression,NF-κB,significantly blunted
"GalT-V specific siRNA duplex: siRNA for human GalT-V: 5′-CGG AGU GAG UGG CUU AAC A dTdT-3′ (sense), 5′-UGU UAA GCC ACU CAC UCC G dTdT-3′ (antisense) (sense CGGAGUGAGUGGCUUAACATT; antisense UGUUAAGCCACUCACUCCGTT; chemistry not fully specified)",decrease of GalT-V enzyme activity,GalT-V [3],~62%
same,PECAM-1 expression in GalT-V silenced cells treated with VEGF,PECAM-1 [1]; [6],No change
same,decrease of GalT-V protein expression,GalT-V [4],~70%
same,angiogenesis in GalT-V silenced cells treated with VEGF,HUVECs; [6],blunted
CCCCCCCCCCCCC/C=C/[C@@H](O)[C@H](CO)NC(C)=O [C2ceramide],bypass of inhibitory effect of D-PDMP on VEGF induced PECAM-1 protein expression,PECAM-1 [1],failed to bypass
same,PECAM-1 expression induced by lipid,PECAM-1 [1]; HUVECs,did not induce
same,bypass of inhibitory effect of D-PDMP on VEGF induced angiogenesis,HUVECs,failed to bypass
digalactosylceramide [DGDG],bypass of inhibitory effect of D-PDMP on VEGF induced PECAM-1 protein expression,PECAM-1 [1],failed to bypass
same,PECAM-1 expression induced by lipid,PECAM-1 [1]; HUVECs,did not induce
same,bypass of inhibitory effect of D-PDMP on VEGF induced angiogenesis,HUVECs,failed to bypass
Cn1c2ccccc2c2c3c(c4c5ccccc5n(CCC#N)c4c21)CNC3=O [GÖ 6976],VEGF/LacCer induced PECAM-1 expression,PECAM-1 [1]; [5],abrogated
same,VEGF/LacCer induced tube formation,HUVECs; [5],abrogated
"CCCCCCCCCC(=O)N[C@H](CN1CCOCC1)[C@H](O)c1ccccc1 [D-PDMP, (1R,2R)-1-phenyl-2-decanoylamino-3-morpholino-1-propanol]",VEGF induced LacCer biosynthesis,"LacCer; HUVECs pretreated with 20 μM D-PDMP, then VEGF 25 ng/ml",mitigated
same,level of GbOse3Cer synthesis,GbOse3Cer,similar
same,VEGF induced PECAM-1 mRNA expression,PECAM-1 [2]; [7],abrogated
same,action on LacCer synthase,LacCer synthase,inhibitor of purified LacCer synthase
same,apoptosis,HUVEC,did not induce apoptosis
same,VEGF induced PECAM-1 protein expression,PECAM-1 [1]; [7],abrogated
same,VEGF-induced PECAM-1 expression,"PECAM-1 [1]; HUVECs pre-incubated with D-PDMP 10-30 μM, then VEGF 25 ng/ml 4 hrs",concentration-dependent inhibition
same,VEGF induced GlcCer synthesis,"GlcCer; D-PDMP 20 μM pretreatment, as early as 10 min",inhibited
same,VEGF induced angiogenesis,"HUVECs; HUVECs, D-PDMP",significantly mitigated
"S=C(S)N1CCCC1 [PDTC, 1-pyrrolidinecarbodithioicacid]",VEGF/LacCer induced PECAM-1,PECAM-1 [1],significantly blunted
same,VEGF/LacCer induced cytosolic NF-κB expression,NF-κB,significantly blunted
"CC(=O)N[C@@H](CS)C(=O)O [NAC, N-Acetyl-L-cysteine]",VEGF/LacCer induced PECAM-1,PECAM-1 [1],significantly blunted
CCCCCCCCCC(=O)N[C@@H](CN1CCOCC1)[C@@H](O)c1ccccc1 [L-PDMP],action on LacCer synthase,LacCer synthase,potent activator
same,PECAM-1 expression,PECAM-1 [1]; [8],significantly induced
same,angiogenesis,HUVECs; [8],significantly induced
glucosylceramide [GlcCer],bypass of inhibitory effect of D-PDMP on VEGF induced PECAM-1 protein expression,PECAM-1 [1],failed to bypass
same,PECAM-1 expression induced by lipid,PECAM-1 [1]; HUVECs,did not induce
same,reversal of inhibitory effect of PPMP on VEGF induced PECAM-1 expression,PECAM-1 [1]; HUVECs,also reversed
same,bypass of inhibitory effect of D-PDMP on VEGF induced angiogenesis,HUVECs,failed to bypass
same,reversal of inhibitory effect of PPMP on VEGF induced angiogenesis,HUVECs; HUVECs,also reversed
Vascular endothelial growth factor [VEGF],de novo biosynthesis of LacCer,"LacCer; HUVECs, VEGF 25 ng/ml, time-dependent, from 10 min",significantly stimulated
same,tube formation,REN (WT) cells,failed to form tube-like structures
same,time of maximal PECAM-1 mRNA expression,"PECAM-1 [2]; HUVECs, VEGF 25 ng/ml, different time points",4 to 5 h
same,PECAM-1 mRNA expression,PECAM-1 [2]; [9],Maximal
same,PECAM-1 mRNA expression,"PECAM-1 [2]; HUVECs, VEGF 5-30 ng/ml",dose-dependent increase
same,time of maximal PECAM-1 protein expression,"PECAM-1 [1]; HUVECs, VEGF 25 ng/ml, various time intervals",4 h
same,PECAM-1 protein expression,PECAM-1 [1]; [9],maximal
same,tube formation,REN (mt-rhPECAM-1),induced tube formation
same,biosynthesis of GlcCer,GlcCer; VEGF 25 ng/ml,stimulated
CCCCCCCCCCCCCCCC(=O)NC(CN1CCOCC1)C(O)c1ccccc1 (centres unmarked) [PPMP],VEGF induced PECAM-1 expression,PECAM-1 [1]; [10],mitigation
same,VEGF induced angiogenesis,HUVECs; [10],mitigation
CC(C)c1cc(/C=C(\C#N)C(=O)NCCCc2ccccc2)cc(C(C)C)c1O [SU 1498],LacCer induced tube formation/angiogenesis,"HUVECs; HUVECs pre-treated with SU 1498 1 hr, then LacCer",not LacCer
same,VEGF induced tube formation/angiogenesis,"HUVECs; HUVECs pre-treated with SU 1498 1 hr, then VEGF",failed to induce tube formation/angiogenesis
